Biological target: Hepatocyte growth factor receptor (Homo sapiens) (UniProt P08581)
Experiment: Inhibition of c-MET (unknown origin) using FAM-labelled peptide as substrate measured after 10 mins by mobility shift assay

Sequence of Hepatocyte growth factor receptor (Homo sapiens) (P08581 whole entry, looked up): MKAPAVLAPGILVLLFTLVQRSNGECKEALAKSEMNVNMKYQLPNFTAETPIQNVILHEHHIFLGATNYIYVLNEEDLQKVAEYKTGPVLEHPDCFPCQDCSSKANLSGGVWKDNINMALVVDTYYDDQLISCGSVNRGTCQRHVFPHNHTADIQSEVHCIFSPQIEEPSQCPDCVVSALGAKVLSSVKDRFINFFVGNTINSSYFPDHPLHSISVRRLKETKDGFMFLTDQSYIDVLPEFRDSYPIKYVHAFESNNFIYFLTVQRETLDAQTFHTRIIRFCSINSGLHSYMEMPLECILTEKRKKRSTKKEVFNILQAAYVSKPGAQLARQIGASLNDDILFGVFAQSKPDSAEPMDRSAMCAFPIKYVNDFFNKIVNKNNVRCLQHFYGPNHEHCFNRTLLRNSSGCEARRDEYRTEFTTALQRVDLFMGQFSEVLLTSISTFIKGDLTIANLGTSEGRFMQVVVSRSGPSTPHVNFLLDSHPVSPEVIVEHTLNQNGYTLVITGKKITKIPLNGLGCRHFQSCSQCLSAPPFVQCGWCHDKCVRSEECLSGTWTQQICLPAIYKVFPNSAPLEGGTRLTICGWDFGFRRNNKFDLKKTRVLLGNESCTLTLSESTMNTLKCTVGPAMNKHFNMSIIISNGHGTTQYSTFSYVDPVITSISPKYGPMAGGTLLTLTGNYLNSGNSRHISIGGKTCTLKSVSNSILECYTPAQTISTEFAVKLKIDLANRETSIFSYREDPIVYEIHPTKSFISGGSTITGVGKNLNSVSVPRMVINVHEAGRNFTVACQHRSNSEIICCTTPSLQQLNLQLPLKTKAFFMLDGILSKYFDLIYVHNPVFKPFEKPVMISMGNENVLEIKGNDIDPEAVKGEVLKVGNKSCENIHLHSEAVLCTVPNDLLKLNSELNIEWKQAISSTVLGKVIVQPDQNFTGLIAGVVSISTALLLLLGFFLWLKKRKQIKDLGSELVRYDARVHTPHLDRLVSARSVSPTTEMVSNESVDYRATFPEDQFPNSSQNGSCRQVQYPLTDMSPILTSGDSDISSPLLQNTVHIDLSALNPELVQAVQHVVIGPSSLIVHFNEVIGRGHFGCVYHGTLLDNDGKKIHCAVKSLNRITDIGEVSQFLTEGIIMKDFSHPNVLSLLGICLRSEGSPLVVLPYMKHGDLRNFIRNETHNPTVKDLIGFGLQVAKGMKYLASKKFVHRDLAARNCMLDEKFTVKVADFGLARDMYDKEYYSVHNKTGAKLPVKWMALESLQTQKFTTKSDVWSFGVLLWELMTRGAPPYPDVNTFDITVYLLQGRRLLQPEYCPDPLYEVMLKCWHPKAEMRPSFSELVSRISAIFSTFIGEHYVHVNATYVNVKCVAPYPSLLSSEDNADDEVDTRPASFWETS

COc1cc2c(Oc3ccc(C4SCC(=O)N4NC(=O)Nc4ccc(F)cc4)cc3)ccnc2cc1OCCCN1CCOCC1 (stereo not drawn)
IC50: 4.3 µM

COc1cc2c(Oc3ccc(C4SCC(=O)N4NC(=O)Nc4ccccc4)cc3)ccnc2cc1OCCCN1CCOCC1 (stereo not drawn)
IC50: 4.52 µM

COc1cc2c(Oc3ccc(C4SCC(=O)N4NC(=O)Nc4ccc(F)cc4F)cc3)ccnc2cc1OCCCN1CCOCC1 (stereo not drawn)
IC50: 3.35 µM
